The target in this experiment is T1, human B1R (Homo sapiens, UniProt P46663).
T1 construct: expressed in transfected cells; host or cells: CHO K1 cells (Chinese Hamster Ovary), stably transfected
T1 sequence (P46663 1-353): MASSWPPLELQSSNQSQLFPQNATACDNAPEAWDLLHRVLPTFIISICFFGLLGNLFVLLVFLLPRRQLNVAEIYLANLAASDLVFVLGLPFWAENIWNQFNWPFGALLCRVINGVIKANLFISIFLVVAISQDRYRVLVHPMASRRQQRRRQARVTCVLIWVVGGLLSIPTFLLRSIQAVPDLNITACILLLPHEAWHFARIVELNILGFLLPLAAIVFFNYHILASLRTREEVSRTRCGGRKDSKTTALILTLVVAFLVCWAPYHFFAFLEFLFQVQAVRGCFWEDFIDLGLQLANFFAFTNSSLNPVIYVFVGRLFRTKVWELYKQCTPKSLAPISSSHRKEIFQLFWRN
The experiment in a line: Functional assay at bradykinin receptor 1 (B1R): Ca2+ fluorescence (Fluo-4) in FLIPR/Novostar, antagonist mode. Type of experiment: cell-based. The settings on record: test substance 10 µM; CHO K1 cells stably transfected with human B1R gene (hB1R-Zellen); agonist Lys-Des-Arg9-Bradykinin at EC80; % inhibition relative to maximal achievable inhibition; read-out: % Inhibierung (human B1R) bei 10 µM. Put shortly:
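Antagonism read as suppression of the Ca2+ rise in Fluo-4-loaded, hB1R-transfected CHO K1 cells when Lys-Des-Arg9-bradykinin (EC80) follows a 6–20 min compound preincubation. Maximal fluorescence counts, measured on FLIPR or Novostar, yield % inhibition relative to maximum; IC50 values come from concentration series run in duplicate or triplicate.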

For the compound `COc1cc(C)c(S(=O)(=O)Cc2noc(CC(=O)N3CCC4(CC3)CCN(c3ccncc3)C4)n2)c(C)c1` [CC-134, 2-[3-[[(4-Methoxy-2,6-dimethyl-phenyl)sulfonyl]-methyl]-[1,2,4]oxadiazol-5-yl]-1-(3-pyridin-4-yl-3,8-diazaspiro[4.5]decan-8-yl)-ethanon], the inhibition at 10 µM was 100%.
The result for `COc1cc(C)c(S(=O)(=O)Cc2noc(CC(=O)N3[C@@H]4CC[C@H]3CC(Oc3ccncc3)C4)n2)c(C)c1` (stereo partly drawn) [CC-135, 2-[3-[[(4-Methoxy-2,6-dimethyl-phenyl)sulfonyl]-methyl]-[1,2,4]oxadiazol-5-yl]-1-[(1S, 5R)-3-pyridin-4-yloxy-8-azabicyclo[3.2.1]octan-8-yl]-ethanon] reads 98%.
The result for `COc1cc(C)c(S(=O)(=O)Cc2noc(C(=O)N3CCN(c4ccncc4)CC3)n2)c(C)c1` [CC-136, [3-[[(4-Methoxy-2,6-dimethyl-phenyl)sulfonyl]-methyl]-[1,2,4]oxadiazol-5-yl]-(4-pyridin-4-yl-piperazin-1-yl)-methanon] reads 100%; that for `Cc1cccc(Cl)c1S(=O)(=O)Cc1noc(C(=O)N2CCN(c3ccncc3)CC2)n1` [CC-137, [3-[[(2-Chlor-6-methyl-phenyl)sulfonyl]-methyl]-[1,2,4]oxadiazol-5-yl]-(4-pyridin-4-yl-piperazin-1-yl)-methanon], 99%.
Consider `Cc1cccc(Cl)c1S(=O)(=O)Cc1noc(C(=O)N2CCC(N3CCN(C)CC3)CC2)n1` [CC-138, [3-[[(2-Chlor-6-methyl-phenyl)sulfonyl]-methyl]-[1,2,4]oxadiazol-5-yl]-[4-(4-methyl-piperazin-1-yl)-piperidin-1-yl]-methanon], for which the inhibition at 10 µM was found to be 95%.
In the case of `COc1cc(C)c(S(=O)(=O)Cc2noc(C(=O)N3CCC4(CC3)CCN(c3ccncc3)C4)n2)c(C)c1` [CC-139, [3-[[(4-Methoxy-2,6-dimethyl-phenyl)sulfonyl]-methyl]-[1,2,4]oxadiazol-5-yl]-(3-pyridin-4-yl-3,8-diazaspiro[4.5]decan-8-yl)-methanon] it was 100%; in that of `Cc1cc(S(=O)(=O)Cc2noc(C(=O)N3CCC(N4CCN(C)CC4)CC3)n2)c(C)cc1Cl` [CC-141, [3-[[(4-Chlor-2,5-dimethyl-phenyl)sulfonyl]-methyl]-[1,2,4]oxadiazol-5-yl]-[4-(4-methyl-piperazin-1-yl)-piperidin-1-yl]-methanon], 99%; in that of `Cc1cc(S(=O)(=O)Cc2noc(C(=O)N3CCC4(CCN(C)C4)C3)n2)c(C)cc1Cl` (stereo not drawn) [CC-142, [3-[[(4-Chlor-2,5-dimethyl-phenyl)sulfonyl]-methyl]-[1,2,4]oxadiazol-5-yl]-(2-methyl-2,8-diaza-spiro[4.4]nonan-8-yl)-methanon], 99%.
The result for `Cc1cccc(Cl)c1S(=O)(=O)Cc1noc(C(=O)N2CCC3(CCN(C)C3)C2)n1` (stereo not drawn) [CC-143, [3-[[(2-Chlor-6-methyl-phenyl)sulfonyl]-methyl]-[1,2,4]oxadiazol-5-yl]-(2-methyl-2,8-diazaspiro-[4.4]nonan-8-yl)-methanon] reads 82%; that for `Cc1cc(S(=O)(=O)Cc2noc(C(=O)N3CCN(c4ccncc4)CC3)n2)c(C)cc1Cl` [CC-144, [3-[[(4-Chlor-2,5-dimethyl-phenyl)sulfonyl]-methyl]-[1,2,4]oxadiazol-5-yl]-(4-pyridin-4-yl-piperazin-1-yl)-methanon], 100%.
As for `Cc1cccc(Cl)c1S(=O)(=O)Cc1noc(C(=O)N2CCC3(CC2)CCN(c2ccncc2)C3)n1` [CC-145, [3-[[(2-Chlor-6-methyl-phenyl)sulfonyl]-methyl]-[1,2,4]oxadiazol-5-yl]-(3-pyridin-4-yl-3,8-diazaspiro[4.5]decan-8-yl)-methanon], the inhibition at 10 µM was 100%.
In the case of `Cc1cc(S(=O)(=O)Cc2noc(C(=O)N3CCC4(CC3)CCN(c3ccncc3)CC4)n2)c(C)cc1Cl` [CC-146, [3-[[(4-Chlor-2,5-dimethyl-phenyl)sulfonyl]-methyl]-[1,2,4]oxadiazol-5-yl]-(9-pyridin-4-yl-3,9-diazaspiro[5.5]undecan-3-yl)-methanon] it was 100%.
`COc1cc(C)c(S(=O)(=O)Cc2noc(C(=O)N3CCC4(CCN(C)C4)C3)n2)c(C)c1` (stereo not drawn) [CC-147, [3-[[(4-Methoxy-2,6-dimethyl-phenyl)sulfonyl]-methyl]-[1,2,4]oxadiazol-5-yl]-(2-methyl-2,8-diazaspiro[4.4]nonan-8-yl)-methanon]: the inhibition at 10 µM was found to be 100%.
Regarding `Cc1cccc(Cl)c1S(=O)(=O)Cc1noc(C(=O)N2CCC3(CC2)CCN(c2ccncc2)CC3)n1` [CC-148, [3-[[(2-Chlor-6-methyl-phenyl)sulfonyl]-methyl]-[1,2,4]oxadiazol-5-yl]-(9-pyridin-4-yl-3,9-diazaspiro[5.5]undecan-3-yl)-methanon], the inhibition at 10 µM turned out to be 100%.
Consider `COc1cc(C)c(S(=O)(=O)Cc2noc(C(=O)N3[C@@H]4CC[C@H]3CC(Oc3ccncc3)C4)n2)c(C)c1` (stereo partly drawn) [CC-149, [3-[[(4-Methoxy-2,6-dimethyl-phenyl)sulfonyl]-methyl]-[1,2,4]oxadiazol-5-yl]-[(1S,5R)-3-pyridin-4-yloxy-8-azabicyclo[3.2.1]octan-8-yl]-methanon], for which the inhibition at 10 µM worked out at 100%.
The result for `Cc1cccc(Cl)c1S(=O)(=O)Cc1noc(C(=O)N2C3CCC2CC(Oc2ccncc2)C3)n1` [CC-150, [3-[[(2-Chlor-6-methyl-phenyl)sulfonyl]-methyl]-[1,2,4]oxadiazol-5-yl]-[(1S,5R)-3-pyridin-4-yloxy-8-azabicyclo[3.2.1]octan-8-yl]-methanon] reads 100%; that for `Cc1cc(S(=O)(=O)Cc2noc(C(=O)N3CCC4(CC3)CCN(c3ccncc3)C4)n2)c(C)cc1Cl` [CC-152, [3-[[(4-Chlor-2,5-dimethyl-phenyl)sulfonyl]-methyl]-[1,2,4]oxadiazol-5-yl]-(3-pyridin-4-yl-3,8-diazaspiro[4.5]decan-8-yl)-methanon], 100%.
In the case of `COc1cc(C)c(S(=O)(=O)Cc2noc(CC(=O)N3CCC(Cc4ccncc4)CC3(C)C)n2)c(C)c1` (stereo not drawn) [CC-153, 1-[2,2-Dimethyl-4-(pyridin-4-yl-methyl)-piperidin-1-yl]-2-[3-[[(4-methoxy-2,6-dimethyl-phenyl)-sulfonyl]-methyl]-[1,2,4]oxadiazol-5-yl]-ethanon] it was 92%.
In the case of `COc1cc(C)c(S(=O)(=O)Cc2cc(C)n(CC(=O)NC3CCC(N(C)C)CC3)n2)c(C)c1` (stereo not drawn) [CC-154, N-(4-Dimethylamino-cyclohexyl)-2-[3-[[(4-methoxy-2,6-dimethyl-phenyl)sulfonyl]-methyl]-5-methyl-1 H-pyrazol-1-yl]-acetamid] it was 80%; in that of `COc1cc(C)c(S(=O)(=O)Cc2cc(C)n(CC(=O)NC3CCC(N4CCCC4)CC3(C)C)n2)c(C)c1` (stereo not drawn) [CC-155, N-(2,2-Dimethyl-4-pyrrolidin-1-yl-cyclohexyl)-2-[3-[[(4-methoxy-2,6-dimethyl-phenyl)sulfonyl]-methyl]-5-methyl-1 H-pyrazol-1-yl]-acetamid], 98%.
For `COc1cc(C)c(S(=O)(=O)Cc2cc(C)n(CC(=O)NC3CCC(N4CCCC4)CC3)n2)c(C)c1` (stereo not drawn) [CC-156, 2-[3-[[(4-Methoxy-2,6-dimethyl-phenyl)sulfonyl]-methyl]-5-methyl-1H-pyrazol-1-yl]-N-(4-pyrrolidin-1-yl-cyclohexyl)-acetamid], the inhibition at 10 µM came out at 98%.

Values taken from patent EP2857388A1, “Azoles containing sulfone” (Grünenthal GmbH, priority 2013, dated 2015).
